Experimental findings from ChEMBL document CHEMBL1136447, “Biological investigation and structure-activity relationship studies on azadirone from Azadirachta indica A. Juss” (2003) are described below.

In one assay the test system is U-251. Briefly: In vitro cytotoxic activity against CNS(U251) cell line at a concentration of 10e-5 M. Format: functional, Homo sapiens.
For the next assay, the system named is DU-145. Briefly: In vitro cytotoxic activity against prostate (DU145) cell line at a concentration of 10e-5 M. Format: functional, Homo sapiens.
A further assay has as its system A498. Briefly: In vitro cytotoxic activity against renal (A498) cell line at a concentration of 10e-5 M. Format: functional, Homo sapiens.
A further assay has as its system M14. The assay is described as follows: In vitro cytotoxic activity against Melanoma (M14) cell line at a concentration of 10e-5 M. Format: functional, Homo sapiens.
The next assay deals with SK-OV-3. The assay is described as follows: In vitro cytotoxic activity against Ovarian (SK-OV3) cell line at a concentration of 10e-5 M. It is filed as functional, Homo sapiens.
In another assay the test system is SW-620. Briefly: In vitro cytotoxic activity against colon (SW620) cell line at a concentration of 10e-5 M. Format: functional, Homo sapiens.
A further assay deals with MCF7. The assay is described as follows: In vitro cytotoxic activity against breast (MCF-7/ADR) cell line at a concentration of 10e-5 M. Format: functional, Homo sapiens.
For a further assay, the system named is NCI-H522. Briefly: In vitro cytotoxicity against H522 (human adenocarcinoma) cell line at a concentration of 10e-5 M.

Each structure is given as a SMILES string.

For the compound `CC(=O)O[C@@H]1CC2C(C)(C)C(=O)[C@@H]3O[C@@H]3[C@]2(C)C2CC[C@]3(C)C(=CC[C@H]3c3ccoc3)[C@@]21C` (some centres undefined), the Growth in the assay with U-251 was 100%; with DU-145, 63.1%; in the assay on A498, 42.7%; in the assay on M14, 100%; in the assay on SK-OV-3 it was 100%; in the assay with SW-620, 100%. For the same compound, the Growth is 59.3% with MCF7 and 69.6% in the assay on NCI-H522.

On to `COc1ccc(/C=C\C(=O)O[C@@H]2CC3C(C)(C)C(=O)C=C[C@]3(C)C3CC[C@]4(C)C(=CC[C@H]4c4ccoc4)[C@@]32C)cc1OC` (some centres undefined), for which the Growth with U-251 is 77%; in the assay with DU-145, 25%; with A498, 5%; in the assay on M14, 39%; with SK-OV-3, 85%; with SW-620, 62%. Besides, the Growth with MCF7 was found to be 66%; with NCI-H522, 63%.

`CCOC1=C[C@@]2(C)C(C[C@@H](O)[C@@]3(C)C4=CC[C@@H](c5ccoc5)[C@]4(C)CCC23)C(C)(C)C1=O` (some centres undefined): the Growth in the assay with U-251 stood at 54%; in the assay with DU-145, 84%; with A498 it was 52%; in the assay with M14, 67%; in the assay on SK-OV-3, 67%; in the assay on SW-620, 36%. Besides, the results for the Growth in the assay on MCF7 and in the assay on NCI-H522 were 17% and 57%, respectively.

With `CC1(C)C(=O)C=C[C@@]2(C)C1C[C@@H](OC(=O)C(F)(F)F)[C@@]1(C)C3=CC[C@@H](c4ccoc4)[C@]3(C)CCC21` (some centres undefined), the Growth came to 52% in the assay with U-251; 77% in the assay on DU-145; 59% in the assay with A498; 86% with M14; 49% in the assay with SK-OV-3; 60% with SW-620. Further, the results for the Growth in the assay with MCF7 and in the assay with NCI-H522 were 54% and 75%, respectively.

For the compound `CC1(C)C(=O)C=C[C@@]2(C)C1C[C@@H](OC(=O)/C=C\c1ccccc1)[C@@]1(C)C3=CC[C@@H](c4ccoc4)[C@]3(C)CCC21` (some centres undefined), the Growth with U-251 was found to be 41%; in the assay with DU-145, 81%; in the assay with A498, 48%; with M14, 41%; with SK-OV-3 it was 86%; with SW-620, 86%. The Growth with MCF7 is 55%; in the assay with NCI-H522, 69%.

Take `CCC(=O)O[C@@H]1CC2C(C)(C)C(=O)C=C[C@]2(C)C2CC[C@]3(C)C(=CC[C@H]3c3ccoc3)[C@@]21C` (some centres undefined): the Growth with U-251 amounted to 40%; in the assay on DU-145, 67%; in the assay on A498, 67%; in the assay on M14, 39%; in the assay with SK-OV-3, 61%; with SW-620, 51%. Also, the Growth in the assay with MCF7 stood at 29%; with NCI-H522, 48%.

On to `CC(=O)O[C@@H]1CC2C(C)(C)/C(=N/O)C=C[C@]2(C)C2CC[C@]3(C)C(=CC[C@H]3c3ccoc3)[C@@]21C` (some centres undefined), for which the Growth with U-251 is 5%; with DU-145, 56%; with A498 it was 20%; in the assay with M14 it was 38%; in the assay on SK-OV-3, 87%; with SW-620, 47%. Moreover, the Growth in the assay on MCF7 is 55%; in the assay on NCI-H522 it was 44%.

For the compound `CC(=O)OC1C=C[C@@]2(C)C(C[C@@H](OC(C)=O)[C@@]3(C)C4=CC[C@@H](c5ccoc5)[C@]4(C)CCC23)C1(C)C` (some centres undefined), the Growth with U-251 is recorded as 46%; in the assay with DU-145, 74%; in the assay on A498, 69%; in the assay on M14 it was 76%; with SK-OV-3 it was 19.3%; in the assay on SW-620 it was 59%. Moreover, the Growth is given as 78% with MCF7 and 86% in the assay with NCI-H522.
